Activity calls are given as the source filed them. The rule behind the calls is not given here.
What was measured:
[1] = system: MDA-MB-435; assay: Antitumor activity against human MDA-MB-435 cells xenografted into flank of […] assessed as decrease in tumor growth at 30 mg/kg twice weekly measured up to 34 days; type: functional, organism-based; design: dose 30 mg/kg
[2] = system: MDA-MB-435; assay: Antitumor activity against human MDA-MB-435 cells xenografted into flank of athymic BALBc/J mouse assessed as decrease in tumor vascular density at 30 mg/kg twice weekly by CD31/PECAM-1 immunohistochemical staining; type: functional, organism-based; design: dose 30 mg/kg
[3] = system: Mus musculus; assay: Toxicity in athymic NCr mouse at 30 mg/kg twice weekly measured up to 34 days; details: in vivo, 816 h
[4] = system: Mus musculus; assay: Toxicity in athymic BALBc/J mouse xenografted with human MDA-MB-435 cells assessed as body weight at 30 mg/kg twice weekly; type: organism-based; design: dose 30 mg/kg; details: in vivo
[5] = system: U-251; assay: Antitumor activity against human U251 cells xenografted into athymic NCr mouse assessed as decrease in tumor growth at 30 mg/kg twice weekly measured up to 34 days; type: functional, organism-based; design: dose 30 mg/kg
[6] = system: Mus musculus; assay: Toxicity in BALBc/J mouse allografted with mouse 4T1 cells at 35 mg/kg twice weekly measured up to 32 days; type: organism-based; design: dose 35 mg/kg; details: in vivo, 768 h
[7] = system: 4T1; assay: Antitumor activity against ip dosed mouse 4T1 cells expressing luciferase allografted in BALBc/J mouse assessed as reduction in lung metastases at 35 mg/kg twice weekly measured after 32 days; type: functional, organism-based; design: dose 35 mg/kg
[8] = system: U-251; assay: Antitumor activity against human U251 cells xenografted into athymic NCr mouse assessed as decrease in tumor growth at 35 mg/kg twice weekly measured up to 34 days; type: functional, organism-based; design: dose 35 mg/kg
[9] = system: Mus musculus; assay: Toxicity in athymic NCr mouse xenografted with human cells at 35 mg/kg twice weekly measured up to 34 days; details: in vivo, 816 h
[10] = system: MDA-MB-435; assay: Antitumor activity against human MDA-MB-435 cells xenografted into flank of athymic BALBc/J mouse assessed as decrease in tumor vascular density at 35 mg/kg twice weekly by CD31/PECAM-1 immunohistochemical staining; type: functional, organism-based; design: dose 35 mg/kg
[11] = system: MDA-MB-435; assay: Antitumor activity against human MDA-MB-435 cells xenografted into flank of […] assessed as decrease in tumor growth at 35 mg/kg twice weekly measured up to 34 days; type: functional, organism-based; design: dose 35 mg/kg
[12] = system: 4T1; assay: Antitumor activity against mouse 4T1 cells expressing luciferase allografted in BALBc/J mouse assessed as suppression of tumor growth at 35 mg/kg twice weekly measured up to 30 days; type: functional, organism-based; design: dose 35 mg/kg
[13] = system: Mus musculus; assay: Toxicity in athymic BALBc/J mouse xenografted with human MDA-MB-435 cells assessed as body weight at 35 mg/kg twice weekly; type: organism-based; design: dose 35 mg/kg; details: in vivo
[14] = system: HeLa; assay: Growth inhibition of human HeLa cells overexpressing beta-3 after 96 hrs incubation by sulforhodamine B technique; type: functional, cell-based
[15] = system: HeLa; assay: Growth inhibition of wild type human HeLa cells after 96 hrs incubation by sulforhodamine B technique; type: functional, cell-based
[16] = biological target: Tubulin (Bos taurus, UniProt Q6B856+Q862L2+Q862F3); assay: Inhibition of bovine brain tubulin assembly preincubated for 15 mins followed by GTP addition measured for 20 mins by spectrophotometry
[17] = Growth inhibition of human OVCAR8 cells after 96 hrs incubation by sulforhodamine B technique; type: functional, cell-based; details: OVCAR-8, 96 h
[18] = system: NCI/ADR-RES; assay: Growth inhibition of human NCI/ADR-RES cells overexpressing P-gp after 96 hrs incubation by sulforhodamine B technique; type: functional, cell-based
[19] = system: Chorioallantoic membrane; assay: tissue or blood; details: Gallus gallus
Description: Antiangiogenic activity in chicken chorioallantoic membrane assessed as inhibition of VEGF/bFGF-induced angiogenesis treated 8 hrs after VEGF/bFGF addition measured after 40 hrs by microscopy

[20] = species: Homo sapiens; assay: Disruption of microtubule organization in human MDA-MB-435 cells at IC50 concentration after 2 hrs by immunofluorescence assay; type: cell-based
[21] = system: U-251; details: Homo sapiens, 25 mg/kg
Description: Antitumor activity against human U251 cells xenografted into athymic NCr mouse assessed as decrease in tumor growth at 25 mg/kg twice weekly measured up to 34 days

[22] = system: Mus musculus; assay: Toxicity in athymic NCr mouse xenografted with human U251 cells at 25 mg/kg twice weekly measured up to 34 days; type: organism-based, U-251; design: dose 25 mg/kg; details: in vivo, 816 h
[23] = system: NCI60; assay: Growth inhibition of human NCI60 cells after 96 hrs incubation by sulforhodamine B technique; type: functional, cell-based
[24] = system: MDA-MB-435; assay: Induction of apoptosis in human MDA-MB-435 cells assessed as caspase 3 cleavage at IC50 concentration after 48 hrs by Western blotting analysis; type: functional, cell-based
[25] = system: MDA-MB-435; details: Homo sapiens, 25 mg/kg
Description: Antitumor activity against human MDA-MB-435 cells xenografted into flank of athymic BALBc/J mouse assessed as decrease in tumor vascular density at 25 mg/kg twice weekly by CD31/PECAM-1 immunohistochemical staining

[26] = system: MDA-MB-435; assay: Induction of apoptosis in human MDA-MB-435 cells assessed as PARP cleavage at IC50 concentration after 48 hrs by Western blotting analysis; type: functional, cell-based
[27] = biological target: Tubulin (Homo sapiens) (UniProt P68371+Q9H4B7+P0DPH7+P68366+Q13509+Q71U36+P04350+Q3ZCM7+P07437+P68363+Q9BQE3+Q6PEY2+Q13885+Q9BVA1+Q9BUF5); assay: Displacement of [3H]-colchicine from tubulin (unknown origin) at 50 uM relative to control; type: protein-complex assay
[28] = system: Mus musculus; assay: Toxicity in BALBc/J mouse allografted with mouse 4T1 cells at 25 mg/kg twice weekly measured up to 32 days; type: organism-based; design: dose 25 mg/kg; details: in vivo, 768 h
[29] = system: MDA-MB-435; details: Homo sapiens, 25 mg/kg; remark: listed apart in the source
Description: Antitumor activity against human MDA-MB-435 cells xenografted into flank of athymic BALBc/J mouse assessed as decrease in tumor growth at 25 mg/kg twice weekly measured up to 34 days

[30] = system: 4T1; details: Mus musculus, 25 mg/kg
Description: Antitumor activity against mouse 4T1 cells expressing luciferase allografted in BALBc/J mouse assessed as suppression of tumor growth at 25 mg/kg twice weekly measured up to 30 days

[31] = system: MDA-MB-435; assay: Cell cycle arrest in human MDA-MB-435 cells assessed as increase in accumulation at G2/M phase at IC50 concentration after 2 hrs by propidium iodide staining-based flow cytometry; type: functional
[32] = system: 4T1; details: Mus musculus, 25 mg/kg; remark: listed apart in the source
Description: Antitumor activity against ip dosed mouse 4T1 cells expressing luciferase allografted in BALBc/J mouse assessed as reduction in lung metastases at 25 mg/kg twice weekly measured after 32 days

[33] = system: Mus musculus; assay: Toxicity in athymic BALBc/J mouse xenografted with human MDA-MB-435 cells assessed as body weight at 25 mg/kg twice weekly; type: organism-based; design: dose 25 mg/kg; details: in vivo

**Q.** For `CCN(CC)CCNC(=O)c1c(C)[nH]c(/C=C2\C(=O)Nc3ccc(F)cc32)c1C` [SUNITINIB], which inhibition [1] is on record?
**A.** The inhibition was “Active”.

**Q.** And the inhibition [2]?
**A.** Its inhibition is “Active”.

**Q.** What about the Activity [3] of the same compound?
**A.** Its Activity is “Non-toxic”.

**Q.** And the Activity [4]?
**A.** The Activity was “Non-toxic”.

**Q.** And the inhibition [5]?
**A.** The inhibition was “Active”.

**Q.** Which results are given for `CC(=O)O[C@@]12CO[C@@H]1C[C@H](O)[C@@]1(C)C(=O)[C@H](O)C3=C(C)[C@@H](OC(=O)[C@H](O)[C@@H](NC(=O)OC(C)(C)C)c4ccccc4)C[C@@](O)([C@@H](OC(=O)c4ccccc4)[C@H]21)C3(C)C.O.O.O` [DOCETAXEL]?
**A.** Activity [6]: Non-toxic; inhibition [7]: Active; inhibition [8]: Active; Activity [9]: Non-toxic; inhibition [10]: Active; inhibition [11]: Active; inhibition [12]: Active; Activity [13]: Non-toxic

**Q.** Which results are given for `Cc1nc(N(C)c2ccccc2)c2[nH]cc(Cc3ccccc3)c2n1.Cl`?
**A.** IC50 [14]: > 10000 nM; IC50 [15]: > 10000 nM; IC50 [16]: > 20000 nM

**Q.** Which IC50 [17] does the source give for `COc1ccc(Nc2nc(C)nc3c(Cc4ccccc4)c[nH]c23)c(OC)c1.Cl` here?
**A.** The IC50 was > 5000 nM.

**Q.** And the IC50 [18]?
**A.** The IC50 was > 5000 nM.

**Q.** And the IC50 [16]?
**A.** Its IC50 is > 40000 nM.

**Q.** Which results are given for `COc1ccc(Nc2nc(C)nc3c(Cc4ccccc4)c[nH]c23)cc1.Cl`?
**A.** IC50 [14]: > 10000 nM; IC50 [15]: > 10000 nM; IC50 [16]: > 20000 nM

**Q.** For `COc1ccc(N(C)c2nc(C)nc3cc[nH]c23)cc1.Cl`, which IC50 [16] is on record?
**A.** The IC50 was 10000 nM.

**Q.** Which IC50 [19] does the source give for `COc1ccc(N(C)c2nc(C)nc3c(Cc4ccccc4)c[nH]c23)cc1.Cl` here?
**A.** Its IC50 is 2900 nM.

**Q.** And the IC50 [14]?
**A.** The IC50 was 280 nM.

**Q.** And the Activity [20]?
**A.** Its Activity is “Active”.

**Q.** What about the inhibition [21] of the same compound?
**A.** Its inhibition is “Active”.

**Q.** What about the Activity [22] of the same compound?
**A.** The Activity was “Non-toxic”.

**Q.** And the IC50 [15]?
**A.** Its IC50 is 280 nM.

**Q.** And the IC50 [17]?
**A.** Its IC50 is 1000 nM.

**Q.** What about the “growth inhibition (GI)” value [23] of the same compound?
**A.** The value was “Active”.

**Q.** What about the Activity [24] of the same compound?
**A.** The Activity was “Active”.

**Q.** And the IC50 [18]?
**A.** Its IC50 is 700 nM.

**Q.** What about the inhibition [25] of the same compound?
**A.** The inhibition was “Active”.

**Q.** And the Activity [26]?
**A.** The Activity was “Active”.

**Q.** What about the inhibition [27] of the same compound?
**A.** Its inhibition is 55%.

**Q.** What about the IC50 [16] of the same compound?
**A.** Its IC50 is 21000 nM.

**Q.** What about the Activity [28] of the same compound?
**A.** Its Activity is “Non-toxic”.

**Q.** What about the inhibition [29] of the same compound?
**A.** The inhibition was “Active”.

**Q.** And the inhibition [30]?
**A.** Its inhibition is “Active”.

**Q.** What about the Activity [31] of the same compound?
**A.** Its Activity is “Active”.

**Q.** And the inhibition [32]?
**A.** The inhibition was “Active”.

**Q.** And the Activity [33]?
**A.** The Activity was “Non-toxic”.

**Q.** What does the source list for `CC(=O)O[C@H]1C(=O)[C@@]2(C)[C@H]([C@H](OC(=O)c3ccccc3)[C@]3(O)C[C@H](OC(=O)[C@H](O)[C@@H](NC(=O)c4ccccc4)c4ccccc4)C(C)=C1C3(C)C)[C@]1(OC(C)=O)CO[C@@H]1C[C@@H]2O` [PACLITAXEL]?
**A.** IC50 [14]: 16 nM; IC50 [15]: 5.3 nM; IC50 [17]: 10 nM; IC50 [18]: 5000 nM

**Q.** For `COc1ccc(/C=C\c2cc(OC)c(OC)c(OC)c2)cc1O` [COMBRETASTATIN A4], which IC50 [14] is on record?
**A.** The IC50 was 2.5 nM.

**Q.** And the IC50 [15]?
**A.** The IC50 was 1.8 nM.

From ChEMBL document CHEMBL3286190, “Discovery of antitubulin agents with antiangiogenic activity as single entities with multitarget chemotherapy potential” (ACS Med Chem Lett, 2014)
